# Reference: ChEMBL document CHEMBL1201862, “PubChem BioAssay data set” (2004)
# Calls of active or inactive are those of the source.
# Tests used:
# [1] = target: T1, RNA-binding protein pos-1 (Caenorhabditis elegans, UniProt G5EF15); experiment: inhibitors of POS-1/mex-3 RNA binding, dose response, biochemical, fluorescence polarization (AID 1964);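 further: purified POS-1 fused to maltose binding protein made in E. coli; potency of compounds blocking POS-1 binding to fluorescent RNA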
# T1 sequence (G5EF15 whole entry): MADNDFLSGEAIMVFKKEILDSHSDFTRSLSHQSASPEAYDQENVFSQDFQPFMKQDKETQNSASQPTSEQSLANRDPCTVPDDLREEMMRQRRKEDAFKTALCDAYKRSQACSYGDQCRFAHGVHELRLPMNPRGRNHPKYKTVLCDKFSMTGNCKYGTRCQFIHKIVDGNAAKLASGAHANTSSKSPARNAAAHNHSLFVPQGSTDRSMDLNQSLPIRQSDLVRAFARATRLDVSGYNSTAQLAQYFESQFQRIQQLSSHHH
# [2] = target: T2, Zinc finger protein mex-5 (Caenorhabditis elegans, UniProt Q9XUB2); experiment: MEX-5/TCR-2 RNA interaction inhibitors, dose response, biochemical, C. elegans, fluorescence polarization (AID 1960)
# T2 sequence (Q9XUB2 whole entry): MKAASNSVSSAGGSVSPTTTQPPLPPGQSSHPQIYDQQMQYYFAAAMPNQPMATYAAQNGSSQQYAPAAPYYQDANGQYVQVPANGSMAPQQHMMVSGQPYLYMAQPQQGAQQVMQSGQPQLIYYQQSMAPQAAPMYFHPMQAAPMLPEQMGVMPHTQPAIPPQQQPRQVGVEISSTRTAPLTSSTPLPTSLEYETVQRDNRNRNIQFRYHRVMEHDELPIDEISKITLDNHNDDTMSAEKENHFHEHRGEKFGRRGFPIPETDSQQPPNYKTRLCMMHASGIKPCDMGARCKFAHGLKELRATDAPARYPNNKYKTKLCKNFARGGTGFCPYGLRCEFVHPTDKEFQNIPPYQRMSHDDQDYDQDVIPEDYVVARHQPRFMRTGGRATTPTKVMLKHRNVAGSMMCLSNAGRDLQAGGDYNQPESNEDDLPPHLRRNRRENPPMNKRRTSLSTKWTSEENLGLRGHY
# [3] = target: Induced myeloid leukemia cell differentiation protein Mcl-1 (Homo sapiens, UniProt Q07820); assay type: functional
# [4] = target: T3, Endoribonuclease toxin MazF (Escherichia coli K-12, UniProt P0AE70); experiment: MazF toxin RNase activators, dose response, biochemical, fluorescence, single-stranded RNA substrate, uHTS hits (AID 588481); assay type: functional
# T3 sequence (P0AE70 whole entry): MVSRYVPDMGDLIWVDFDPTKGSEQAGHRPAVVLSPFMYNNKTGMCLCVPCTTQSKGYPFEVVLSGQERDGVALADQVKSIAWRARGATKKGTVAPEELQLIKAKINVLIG
# [5] = target: T3, Endoribonuclease toxin MazF; experiment: fluorescent RNA oligo signal without MazF, dose response, counter-screen for MazEF activator project, biochemical, fluorescence, single-stranded RNase substrate (AID 588502); assay type: functional
# [6] = Luminescence Cell-Based Dose Retest to Confirm Inhibitors of Cancer Stem Cells. [Related pubchem assays (depositor defined):AID2717, AID2721]; assay type: functional; conditions: Homo sapiens
# [7] = target: Nonstructural protein 1 (Influenza A virus, UniProt Q194T2); assay type: functional, Influenza A virus (A/California/07/2009(H1N1))
# [8] = target: T4, Apoptotic protease-activating factor 1 (Homo sapiens, UniProt O14727); assay type: functional
# T4 sequence (O14727 whole entry): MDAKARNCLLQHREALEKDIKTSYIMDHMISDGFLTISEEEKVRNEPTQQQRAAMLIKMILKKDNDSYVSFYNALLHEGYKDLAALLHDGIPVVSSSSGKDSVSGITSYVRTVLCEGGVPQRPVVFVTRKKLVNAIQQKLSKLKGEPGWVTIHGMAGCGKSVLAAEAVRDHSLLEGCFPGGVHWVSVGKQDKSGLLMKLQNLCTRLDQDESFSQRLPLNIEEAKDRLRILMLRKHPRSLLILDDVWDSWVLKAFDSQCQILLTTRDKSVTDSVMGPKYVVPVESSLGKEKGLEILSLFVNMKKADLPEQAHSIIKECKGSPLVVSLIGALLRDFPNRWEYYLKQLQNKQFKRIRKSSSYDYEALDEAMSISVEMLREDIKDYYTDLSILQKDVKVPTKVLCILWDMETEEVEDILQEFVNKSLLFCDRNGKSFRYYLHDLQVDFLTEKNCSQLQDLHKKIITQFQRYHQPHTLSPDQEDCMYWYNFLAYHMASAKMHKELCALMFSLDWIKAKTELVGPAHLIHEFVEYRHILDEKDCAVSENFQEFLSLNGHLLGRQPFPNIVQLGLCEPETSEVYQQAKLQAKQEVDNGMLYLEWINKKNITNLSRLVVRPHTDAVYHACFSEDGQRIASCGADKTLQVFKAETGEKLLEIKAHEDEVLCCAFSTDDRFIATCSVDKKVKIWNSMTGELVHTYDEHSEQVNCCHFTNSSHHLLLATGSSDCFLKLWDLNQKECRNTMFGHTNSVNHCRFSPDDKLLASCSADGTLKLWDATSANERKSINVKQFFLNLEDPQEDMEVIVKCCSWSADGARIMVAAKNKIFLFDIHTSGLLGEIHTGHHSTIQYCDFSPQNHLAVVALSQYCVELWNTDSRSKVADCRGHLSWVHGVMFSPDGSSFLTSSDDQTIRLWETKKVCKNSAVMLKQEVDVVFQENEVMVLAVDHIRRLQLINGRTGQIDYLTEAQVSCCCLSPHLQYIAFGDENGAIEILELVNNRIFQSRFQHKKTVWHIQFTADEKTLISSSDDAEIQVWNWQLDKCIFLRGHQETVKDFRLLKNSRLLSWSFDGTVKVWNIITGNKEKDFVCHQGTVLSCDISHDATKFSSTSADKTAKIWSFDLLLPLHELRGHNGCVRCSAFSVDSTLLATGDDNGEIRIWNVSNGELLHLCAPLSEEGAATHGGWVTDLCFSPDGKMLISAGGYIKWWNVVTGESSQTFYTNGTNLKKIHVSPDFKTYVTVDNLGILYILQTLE
# [9] = system: INS1; experiment: beta cell apoptosis inhibitors, cytokine rescue, dose response, luminescence, retest (AID 449756); assay type: functional, cell-based; conditions: Rattus norvegicus;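 further: cell death triggered by IL-1 beta plus TNF-alpha plus IFN-gamma mixture; protective hits raise ATP signal compared with cytokine alone wells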
# [10] = target: Glucose-6-phosphate 1-dehydrogenase (Homo sapiens, UniProt P11413); experiment: human G6PD enzyme inhibitors, dose response, selectivity assay for P. falciparum G6PD inhibitor project, biochemical, fluorescence (AID 504792); assay type: functional
# [11] = target: Genome polyprotein (dengue virus type 2, UniProt P29990); experiment: Dengue-2 NS5 methyltransferase inhibitors, primary screen, biochemical, confirmation dose response (AID 588689); assay type: functional
# [12] = target: T5, Ubiquitin-conjugating enzyme E2 N (Homo sapiens, UniProt P61088); assay type: functional;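 further: Dose-response confirmation in a TR-FRET assay detecting UBC13-driven polyubiquitin chain formation, inhibition measured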
# T5 sequence (P61088 whole entry): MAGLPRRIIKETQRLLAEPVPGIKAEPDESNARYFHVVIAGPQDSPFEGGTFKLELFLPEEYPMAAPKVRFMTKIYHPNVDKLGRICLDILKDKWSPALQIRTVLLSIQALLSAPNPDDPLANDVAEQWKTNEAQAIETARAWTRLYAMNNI
# [13] = inhibitors of HIV Env-driven cell fusion, dose response, cherry-pick (AID 652057); assay type: functional, cell-based
# [14] = CEM21 lymphoblast cell cytotoxicity, dose response, cytotoxicity control for viral fusion inhibitor project, CellTiter-Glo luminescence, cherry-picked (AID 652042); assay type: functional, cell-based;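 further: potency for signal decrease meaning cytotoxicity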
# [15] = ZM109 Env clade C HIV-1 fusion inhibitors, dose response, HeLa effector, CEM target cells, luciferase, cherry-pick (AID 652058); assay type: functional, cell-based
# [16] = off-target signal loss in HeLa-CEM21 co-culture – HeLa F-luc CTL cells, cherry-picked, counter-screen for HIV-1 Env fusion inhibitor project, dose response (AID 652040); assay type: functional, cell-based;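 further: potency for signal decrease marking cytotoxic or nonspecific inhibition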
# [17] = inhibitors of clade B AD8 Env fusion, dose response, cell-based, cherry-pick (AID 652062); assay type: functional;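 further: luciferase signal from cell-cell fusion driven by HIV-1 clade B AD8 Env; potency is for inhibitors of fusion seen as a drop in luminescence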
# [18] = target: T6, Low molecular weight phosphotyrosine protein phosphatase (Homo sapiens, UniProt P24666); assay type: functional; conditions: read-out: IC50_Mean;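 further: Dose-response confirmation assay measuring inhibition of LMPTP enzyme activity by fluorescence intensity read-out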
# T6 sequence (P24666 whole entry): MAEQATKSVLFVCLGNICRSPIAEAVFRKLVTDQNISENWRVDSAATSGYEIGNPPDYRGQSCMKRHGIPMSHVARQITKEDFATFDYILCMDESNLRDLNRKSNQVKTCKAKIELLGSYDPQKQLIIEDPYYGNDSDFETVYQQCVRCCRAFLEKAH
# [19] = insulin promoter down-regulators in MIN6 cells, imaging, high-content screening, mouse beta cells (AID 1628); assay type: functional
# [20] = system: BJ; experiment: cytotoxicity toward BJ-TERT fibroblasts, dose response, cell-based, RAS-independent, luminescence (AID 1933); assay type: functional; conditions: Homo sapiens
# [21] = cytotoxicity in MIN6 insulinoma cells, dose response, cytotoxicity control, cell-based, mouse insulinoma (AID 2122); assay type: functional;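 further: confirmatory high-throughput counterscreen run to flag cytotoxic compounds; mouse MIN-6 beta cells carrying an insulin promoter eGFP reporter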
# [22] = system: BJ; experiment: cells; assay type: functional, cell-based; conditions: Homo sapiens
# [23] = system: BJ; experiment: cytotoxicity toward BJ-TERT-LT-ST fibroblasts, dose response, cell-based, RAS-independent, luminescence (AID 1935); assay type: functional; conditions: Homo sapiens;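 further: BJ fibroblasts immortalized with TERT plus LT and ST oncogenes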
# [24] = cytotoxicity toward DRD oncogenic fibroblasts, dose response, cell-based, non-viral oncogenic, luminescence (AID 1934); assay type: functional; conditions: Homo sapiens
# [25] = target: T7, Microphthalmia-associated transcription factor (Homo sapiens, UniProt O75030); experiment: TRPM1 promoter luciferase signal decrease, dose response, MITF inhibitor project, cell-based, SK-MEL-5, cherry-picked, set 3 (AID 493073); assay type: functional
# T7 sequence (O75030 whole entry): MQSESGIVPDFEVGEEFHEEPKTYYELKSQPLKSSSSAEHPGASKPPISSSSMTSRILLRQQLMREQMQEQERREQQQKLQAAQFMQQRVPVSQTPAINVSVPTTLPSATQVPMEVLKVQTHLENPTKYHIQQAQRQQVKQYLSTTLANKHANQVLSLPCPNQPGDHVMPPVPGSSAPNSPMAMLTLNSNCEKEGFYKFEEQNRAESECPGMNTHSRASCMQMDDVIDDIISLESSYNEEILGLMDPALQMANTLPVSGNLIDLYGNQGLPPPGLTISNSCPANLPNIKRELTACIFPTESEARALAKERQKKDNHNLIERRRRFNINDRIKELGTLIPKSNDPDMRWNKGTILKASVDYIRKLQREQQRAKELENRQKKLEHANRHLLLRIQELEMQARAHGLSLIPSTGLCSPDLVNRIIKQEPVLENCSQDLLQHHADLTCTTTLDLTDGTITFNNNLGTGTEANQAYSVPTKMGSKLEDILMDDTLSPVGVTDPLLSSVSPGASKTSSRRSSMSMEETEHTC
# [26] = target: Dual specificity tyrosine-phosphorylation-regulated kinase 1A (Rattus norvegicus, UniProt Q63470); assay type: biochemical, Homo sapiens
# [27] = system: Streptococcus sp. 'group A'; experiment: growth inhibition of control SK(-) GAS strain, dose response, counter-screen for streptokinase expression inhibitor project, luminescence, kanamycin, BacTiterGlo, confirmation (AID 1900); assay type: functional, organism-based
# [28] = system: Streptococcus; experiment: Group A Streptococcus viability loss, dose response, counter-screen for streptokinase expression inhibitor project, luminescence, BacTiterGlo (AID 1915); assay type: functional, organism-based;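 further: potency for reduction of bacterial viability or growth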
# Chain of Glucose-6-phosphate 1-dehydrogenase (P11413 whole entry): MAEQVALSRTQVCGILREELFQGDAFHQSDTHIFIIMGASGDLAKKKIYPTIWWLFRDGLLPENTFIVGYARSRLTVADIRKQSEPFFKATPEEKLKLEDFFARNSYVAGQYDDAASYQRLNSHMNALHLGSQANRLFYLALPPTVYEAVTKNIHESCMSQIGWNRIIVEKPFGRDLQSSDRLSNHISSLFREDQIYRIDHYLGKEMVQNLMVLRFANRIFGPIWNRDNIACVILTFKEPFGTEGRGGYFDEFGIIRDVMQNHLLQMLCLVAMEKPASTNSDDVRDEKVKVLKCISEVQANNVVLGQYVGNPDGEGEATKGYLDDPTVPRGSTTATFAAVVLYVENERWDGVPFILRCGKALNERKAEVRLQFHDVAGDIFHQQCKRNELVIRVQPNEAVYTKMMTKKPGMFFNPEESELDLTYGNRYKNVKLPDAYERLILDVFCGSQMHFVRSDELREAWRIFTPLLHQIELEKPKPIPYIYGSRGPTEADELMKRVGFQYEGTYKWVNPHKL
# Chain of Induced myeloid leukemia cell differentiation protein Mcl-1 (Q07820 whole entry): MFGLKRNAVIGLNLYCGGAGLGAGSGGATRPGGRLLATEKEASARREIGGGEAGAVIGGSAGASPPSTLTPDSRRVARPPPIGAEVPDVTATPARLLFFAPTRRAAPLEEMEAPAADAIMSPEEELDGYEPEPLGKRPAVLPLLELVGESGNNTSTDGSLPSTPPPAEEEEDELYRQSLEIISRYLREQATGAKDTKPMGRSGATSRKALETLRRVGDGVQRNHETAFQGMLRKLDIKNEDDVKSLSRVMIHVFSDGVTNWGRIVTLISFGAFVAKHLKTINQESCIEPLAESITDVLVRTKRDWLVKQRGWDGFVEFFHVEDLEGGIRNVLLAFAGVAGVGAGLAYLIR
# Chain of Nonstructural protein 1 (Q194T2 whole entry): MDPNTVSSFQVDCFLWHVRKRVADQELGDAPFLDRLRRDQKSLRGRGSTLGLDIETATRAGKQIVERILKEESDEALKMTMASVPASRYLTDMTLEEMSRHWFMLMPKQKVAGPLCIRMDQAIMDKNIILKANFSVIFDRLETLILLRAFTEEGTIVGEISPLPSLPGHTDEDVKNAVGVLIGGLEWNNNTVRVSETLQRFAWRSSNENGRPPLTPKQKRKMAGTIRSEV
# Chain of Genome polyprotein (P29990 2492-3391 limits assumed): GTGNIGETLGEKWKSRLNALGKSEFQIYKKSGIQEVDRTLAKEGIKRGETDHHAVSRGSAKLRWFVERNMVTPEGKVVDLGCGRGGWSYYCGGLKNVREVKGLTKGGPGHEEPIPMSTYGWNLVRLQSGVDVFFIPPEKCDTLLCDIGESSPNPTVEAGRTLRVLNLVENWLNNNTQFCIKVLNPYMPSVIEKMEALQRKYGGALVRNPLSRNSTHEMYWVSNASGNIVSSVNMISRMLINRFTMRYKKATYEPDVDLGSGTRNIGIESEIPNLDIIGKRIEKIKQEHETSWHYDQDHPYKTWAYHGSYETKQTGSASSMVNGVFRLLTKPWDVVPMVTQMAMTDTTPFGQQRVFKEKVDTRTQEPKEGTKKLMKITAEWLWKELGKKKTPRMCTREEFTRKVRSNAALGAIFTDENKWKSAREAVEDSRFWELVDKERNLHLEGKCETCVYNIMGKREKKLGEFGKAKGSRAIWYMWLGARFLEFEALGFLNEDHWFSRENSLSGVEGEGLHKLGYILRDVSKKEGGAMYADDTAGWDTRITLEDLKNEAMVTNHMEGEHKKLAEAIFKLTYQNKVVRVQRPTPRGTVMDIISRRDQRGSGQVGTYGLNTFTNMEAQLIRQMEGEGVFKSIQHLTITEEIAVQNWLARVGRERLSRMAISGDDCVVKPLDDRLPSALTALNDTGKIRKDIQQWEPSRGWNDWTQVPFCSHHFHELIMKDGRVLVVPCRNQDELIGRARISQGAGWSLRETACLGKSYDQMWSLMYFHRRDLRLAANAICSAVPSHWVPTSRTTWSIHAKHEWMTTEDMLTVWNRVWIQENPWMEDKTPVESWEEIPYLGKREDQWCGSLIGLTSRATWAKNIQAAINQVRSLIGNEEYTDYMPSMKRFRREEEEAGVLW
compound,measurement,setting,value
O=C1C(=Cc2cccn2-c2ccccc2)C(=O)c2ccccc21,EC50,[1],68.6 µM (active)
same,EC50,[2],175 µM (active)
same,IC50,[3],4.55 µM (active)
same,EC50,[4],> 99 µM (inactive)
same,EC50,[5],60.7 µM (inactive)
COC(=O)C1=C(C)N(C)C(C)=C(C(=O)OC)C1c1ccccn1,EC50,[4],> 99 µM (inactive)
same,EC50,[5],56.4 µM (inactive)
CC(C)n1cnc2c(NCc3ccccc3)cc(N[C@H](C)CO)cc21,AC50,[6],6.67 µM (active)
same,IC50,[7],61.9 µM (active)
same,IC50,[8],1.22 µM (active)
same,AC50,[9],1.52 µM (active)
COC(=O)CCC(=O)OC1(C)C(=O)C2=CN(c3ccccc3)C(c3ccc(OC)cc3)=CC2=C(Br)C1=O (stereo not given),IC50,[10],42.1 µM (inactive)
same,IC50,[11],> 100 µM (active)
CCOC(=O)c1cnn(-c2c(Cc3ccccc3)c(C)nc3c(-c4ccccc4)c(C)nn23)c1N,IC50,[8],4 µM (active)
CCC(C)N(CCNC(=O)c1ccc2c(c1)NC(=O)c1ccccc1S2)C1CCCCC1 (stereo not given),IC50,[10],> 80 µM (inactive)
same,IC50,[12],> 20 µM (inactive)
same,AC50,[13],0.758 µM (active)
same,AC50,[14],45.1 µM (active)
same,AC50,[15],0.923 µM (active)
same,AC50,[16],1.09 µM (active)
same,AC50,[17],3.82 µM (active)
O=C(CSc1nnc(-c2ccco2)o1)c1ccc[nH]1,IC50,[18],38.1 µM (inactive)
Cc1cc(-n2c(C)cc(C(=O)CCl)c2C)no1,IC50,[19],3.25 µM (active)
same,EC50,[20],4.75 µM (inconclusive)
same,IC50,[21],1.66 µM (active)
same,EC50,[22],2.76 µM (active)
same,EC50,[23],1.91 µM (inconclusive)
same,EC50,[24],10.9 µM (inconclusive)
same,AC50,[25],5.5 µM (active)
O=C1N=C(N2CCc3ccccc3C2)S/C1=C\c1ccc(O)cc1,AC50,[26],0.737 µM (active)
O=C1/C(=C/c2ccc3c(c2)OCO3)Oc2cc(OCC(=O)N3CCC[C@H]3C(=O)O)ccc21,AC50,[26],4.59 µM (active)
CCn1cc(C(=O)O)c(=O)c2cc(F)c(N3CCN(S(=O)(=O)c4ccc5c(c4)OCCO5)CC3)cc21,EC50,[27],2.84 µM (active)
same,EC50,[28],5.81 µM (active)
same,IC50,[18],5.48 µM (active)
Cc1ccc(S(=O)(=O)SCCCSS(=O)(=O)c2ccc(C)cc2)cc1,IC50,[10],26.7 µM (inactive)
